Data reported in ChEMBL document CHEMBL3259571, “Diacylglycerol lactones targeting the structural features that distinguish the atypical C1 domains of protein kinase C ζ and ι from typical C1 domains” (J Med Chem, 2014).

Test system: not listed separately
Experiment: Displacement of [20-3H]PDBu from GST-tagged mouse PKC-delta C1B domain N7R/L20R mutant expressed in Escherichia coli after 2 to 30 mins by polyethylene glycol precipitation assay in presence of phosphatidylserine
`CC(C)C(CC(=O)OCC1(CO)C/C(=C/c2ccc(C(=O)O)cc2)C(=O)O1)C(C)C` (stereo not drawn) showed a Ki of 51900 nM.
`CC(C)CC(C/C=C1\CC(CO)(COC(=O)C(C)(CO)CO)OC1=O)CC(C)C` (stereo not drawn) showed a Ki of 7640 nM.
Molecule `CCCC(=O)O[C@@H]1[C@@H](C)[C@@]2(O)[C@@H](C=C(CO)C[C@]3(O)C(=O)C(C)=C[C@@H]23)[C@@H]2C(C)(C)[C@]12OC(=O)CCC` has a Ki of 480 nM.

Species: Mus musculus
Experiment: Selectivity ratio of Ki for GST-tagged mouse PKC-delta C1B domain N7R/S10R/P11R mutant to Kd for GST-tagged full-length mouse PKC-delta C1B domain
With `CC(C)CC(C/C=C1\CC(CO)(COC(=O)C(C)(CO)CO)OC1=O)CC(C)C` (stereo not drawn) the Selectivity ratio was 60.5.

Species: Mus musculus
Experiment: Selectivity ratio of Ki for GST-tagged mouse PKC-delta C1B domain N7R mutant to Kd for GST-tagged full-length mouse PKC-delta C1B domain
For `CC(C)C(CC(=O)OCC1(CO)C/C(=C/c2ccc(C(=O)O)cc2)C(=O)O1)C(C)C` (stereo not drawn), the Selectivity ratio was 0.55.
Work on `CC(C)CC(C/C=C1\CC(CO)(COC(=O)C(C)(CO)CO)OC1=O)CC(C)C` (stereo not drawn) yielded a Selectivity ratio of 1.04.

Test system: not listed separately
Experiment: Displacement of [20-3H]PDBu from GST-tagged mouse PKC-delta C1B domain N7R mutant expressed in Escherichia coli after 2 to 30 mins by polyethylene glycol precipitation assay in presence of phosphatidylserine
Molecule `CC(C)C(CC(=O)OCC1(CO)C/C(=C/c2ccc(C(=O)O)cc2)C(=O)O1)C(C)C` (stereo not drawn) has a Ki of 473 nM.
For `CC(C)CC(C/C=C1\CC(CO)(COC(=O)C(C)(CO)CO)OC1=O)CC(C)C` (stereo not drawn), the Ki was 806 nM.
With `CCCC(=O)O[C@@H]1[C@@H](C)[C@@]2(O)[C@@H](C=C(CO)C[C@]3(O)C(=O)C(C)=C[C@@H]23)[C@@H]2C(C)(C)[C@]12OC(=O)CCC` the Ki was 1.18 nM.

Species: Mus musculus
Experiment: Selectivity ratio of Ki for GST-tagged mouse PKC-delta C1B domain S10R mutant to Kd for GST-tagged full-length mouse PKC-delta C1B domain
For `CC(C)C(CC(=O)OCC1(CO)C/C(=C/c2ccc(C(=O)O)cc2)C(=O)O1)C(C)C` (stereo not drawn), the Selectivity ratio was 0.57.
In the case of `CC(C)CC(C/C=C1\CC(CO)(COC(=O)C(C)(CO)CO)OC1=O)CC(C)C` (stereo not drawn), the Selectivity ratio is reported as 1.44.

Species: Mus musculus
Experiment: Selectivity ratio of Ki for GST-tagged mouse PKC-delta C1B domain N7R/L20R mutant to Kd for GST-tagged full-length mouse PKC-delta C1B domain
`CC(C)C(CC(=O)OCC1(CO)C/C(=C/c2ccc(C(=O)O)cc2)C(=O)O1)C(C)C` (stereo not drawn) showed a Selectivity ratio of 60.
With `CC(C)CC(C/C=C1\CC(CO)(COC(=O)C(C)(CO)CO)OC1=O)CC(C)C` (stereo not drawn) the Selectivity ratio was 9.83.

Test system: not listed separately
Experiment: Displacement of [20-3H]PDBu from GST-tagged mouse PKC-delta C1B domain N7R/S10R/P11R mutant expressed in Escherichia coli after 2 to 30 mins by polyethylene glycol precipitation assay in presence of phosphatidylserine
Work on `CC(C)CC(C/C=C1\CC(CO)(COC(=O)C(C)(CO)CO)OC1=O)CC(C)C` (stereo not drawn) yielded a Ki of 47000 nM.
In the case of `CCCC(=O)O[C@@H]1[C@@H](C)[C@@]2(O)[C@@H](C=C(CO)C[C@]3(O)C(=O)C(C)=C[C@@H]23)[C@@H]2C(C)(C)[C@]12OC(=O)CCC`, the Ki is reported as 19.6 nM.

Test system: not listed separately
Experiment: Displacement of [20-3H]PDBu from GST-tagged mouse PKC-delta C1B domain N7R/S10R/L20R mutant expressed in Escherichia coli after 2 to 30 mins by polyethylene glycol precipitation assay in presence of phosphatidylserine
For `CC(C)CC(C/C=C1\CC(CO)(COC(=O)C(C)(CO)CO)OC1=O)CC(C)C` (stereo not drawn), the Ki was 7830 nM.
`CCCC(=O)O[C@@H]1[C@@H](C)[C@@]2(O)[C@@H](C=C(CO)C[C@]3(O)C(=O)C(C)=C[C@@H]23)[C@@H]2C(C)(C)[C@]12OC(=O)CCC` showed a Ki of 1360 nM.

Test system: not listed separately
Experiment: Displacement of [20-3H]PDBu from GST-tagged mouse PKC-delta C1B domain N7R/P11R mutant expressed in Escherichia coli after 2 to 30 mins by polyethylene glycol precipitation assay in presence of phosphatidylserine
For `CC(C)C(CC(=O)OCC1(CO)C/C(=C/c2ccc(C(=O)O)cc2)C(=O)O1)C(C)C` (stereo not drawn), the Ki was 2810 nM.
`CC(C)CC(C/C=C1\CC(CO)(COC(=O)C(C)(CO)CO)OC1=O)CC(C)C` (stereo not drawn) showed a Ki of 23800 nM.
In the case of `CCCC(=O)O[C@@H]1[C@@H](C)[C@@]2(O)[C@@H](C=C(CO)C[C@]3(O)C(=O)C(C)=C[C@@H]23)[C@@H]2C(C)(C)[C@]12OC(=O)CCC`, the Ki is reported as 33.8 nM.

Target: Protein kinase C delta type (Mus musculus, UniProt P28867)
Sequence (P28867 whole entry, the tested form may be a part): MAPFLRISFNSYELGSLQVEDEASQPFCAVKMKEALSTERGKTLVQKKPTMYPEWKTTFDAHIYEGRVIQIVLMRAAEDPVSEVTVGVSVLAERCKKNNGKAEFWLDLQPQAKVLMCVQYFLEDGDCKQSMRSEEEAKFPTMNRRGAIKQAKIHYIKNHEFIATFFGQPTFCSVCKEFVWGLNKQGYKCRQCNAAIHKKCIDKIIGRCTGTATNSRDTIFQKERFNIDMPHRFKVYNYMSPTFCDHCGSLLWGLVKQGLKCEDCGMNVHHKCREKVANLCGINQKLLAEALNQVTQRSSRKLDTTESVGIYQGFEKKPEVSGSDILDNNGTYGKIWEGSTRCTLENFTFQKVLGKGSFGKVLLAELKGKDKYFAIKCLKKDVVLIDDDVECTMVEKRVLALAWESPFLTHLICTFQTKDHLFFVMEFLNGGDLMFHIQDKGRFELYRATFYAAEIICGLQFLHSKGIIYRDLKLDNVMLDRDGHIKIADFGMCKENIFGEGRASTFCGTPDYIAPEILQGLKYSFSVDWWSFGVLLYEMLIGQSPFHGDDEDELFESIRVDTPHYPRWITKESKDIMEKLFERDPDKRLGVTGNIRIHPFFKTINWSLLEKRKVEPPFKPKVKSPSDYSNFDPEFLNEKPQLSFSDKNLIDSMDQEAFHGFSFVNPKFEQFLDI
Experiment: Displacement of [20-3H]PDBu from GST-tagged full-length mouse PKC-delta C1B domain expressed in Escherichia coli after 2 to 30 mins by polyethylene glycol precipitation assay in presence of phosphatidylserine
Molecule `CC(C)C(CC(=O)OCC1(CO)C/C(=C/c2ccc(C(=O)O)cc2)C(=O)O1)C(C)C` (stereo not drawn) has a Kd of 865 nM.
Work on `CC(C)CC(C/C=C1\CC(CO)(COC(=O)C(C)(CO)CO)OC1=O)CC(C)C` (stereo not drawn) yielded a Kd of 777 nM.
Molecule `CCCC(=O)O[C@@H]1[C@@H](C)[C@@]2(O)[C@@H](C=C(CO)C[C@]3(O)C(=O)C(C)=C[C@@H]23)[C@@H]2C(C)(C)[C@]12OC(=O)CCC` has a Kd of 0.23 nM.

Species: Mus musculus
Experiment: Selectivity ratio of Ki for GST-tagged mouse PKC-delta C1B domain P11R mutant to Kd for GST-tagged full-length mouse PKC-delta C1B domain
Molecule `CC(C)C(CC(=O)OCC1(CO)C/C(=C/c2ccc(C(=O)O)cc2)C(=O)O1)C(C)C` (stereo not drawn) has a Selectivity ratio of 1.09.
With `CC(C)CC(C/C=C1\CC(CO)(COC(=O)C(C)(CO)CO)OC1=O)CC(C)C` (stereo not drawn) the Selectivity ratio was 2.61.

Species: Mus musculus
Experiment: Selectivity ratio of Ki for GST-tagged mouse PKC-delta C1B domain L20R mutant to Kd for GST-tagged full-length mouse PKC-delta C1B domain
`CC(C)C(CC(=O)OCC1(CO)C/C(=C/c2ccc(C(=O)O)cc2)C(=O)O1)C(C)C` (stereo not drawn) showed a Selectivity ratio of 3.25.
`CC(C)CC(C/C=C1\CC(CO)(COC(=O)C(C)(CO)CO)OC1=O)CC(C)C` (stereo not drawn) showed a Selectivity ratio of 1.04.

Test system: not listed separately
Experiment: Displacement of [20-3H]PDBu from GST-tagged mouse PKC-delta C1B domain S10R mutant expressed in Escherichia coli after 2 to 30 mins by polyethylene glycol precipitation assay in presence of phosphatidylserine
For `CC(C)C(CC(=O)OCC1(CO)C/C(=C/c2ccc(C(=O)O)cc2)C(=O)O1)C(C)C` (stereo not drawn), the Ki was 496 nM.
Molecule `CC(C)CC(C/C=C1\CC(CO)(COC(=O)C(C)(CO)CO)OC1=O)CC(C)C` (stereo not drawn) has a Ki of 1120 nM.
Work on `CCCC(=O)O[C@@H]1[C@@H](C)[C@@]2(O)[C@@H](C=C(CO)C[C@]3(O)C(=O)C(C)=C[C@@H]23)[C@@H]2C(C)(C)[C@]12OC(=O)CCC` yielded a Ki of 0.32 nM.

Species: Mus musculus
Experiment: Selectivity ratio of Ki for GST-tagged mouse PKC-delta C1B domain N7R/S10R/L20R mutant to Kd for GST-tagged full-length mouse PKC-delta C1B domain
`CC(C)CC(C/C=C1\CC(CO)(COC(=O)C(C)(CO)CO)OC1=O)CC(C)C` (stereo not drawn) gave a Selectivity ratio of 10.1.

Species: Mus musculus
Experiment: Selectivity ratio of Ki for GST-tagged mouse PKC-delta C1B domain N7R/P11R mutant to Kd for GST-tagged full-length mouse PKC-delta C1B domain
Molecule `CC(C)C(CC(=O)OCC1(CO)C/C(=C/c2ccc(C(=O)O)cc2)C(=O)O1)C(C)C` (stereo not drawn) has a Selectivity ratio of 3.25.
For `CC(C)CC(C/C=C1\CC(CO)(COC(=O)C(C)(CO)CO)OC1=O)CC(C)C` (stereo not drawn), the Selectivity ratio was 30.7.

Test system: not listed separately
Experiment: Displacement of [20-3H]PDBu from GST-tagged mouse PKC-delta C1B domain L20R mutant expressed in Escherichia coli after 2 to 30 mins by polyethylene glycol precipitation assay in presence of phosphatidylserine
For `CC(C)C(CC(=O)OCC1(CO)C/C(=C/c2ccc(C(=O)O)cc2)C(=O)O1)C(C)C` (stereo not drawn), the Ki was 2810 nM.
In the case of `CC(C)CC(C/C=C1\CC(CO)(COC(=O)C(C)(CO)CO)OC1=O)CC(C)C` (stereo not drawn), the Ki is reported as 810 nM.
Work on `CCCC(=O)O[C@@H]1[C@@H](C)[C@@]2(O)[C@@H](C=C(CO)C[C@]3(O)C(=O)C(C)=C[C@@H]23)[C@@H]2C(C)(C)[C@]12OC(=O)CCC` yielded a Ki of 8 nM.

Test system: not listed separately
Experiment: Displacement of [20-3H]PDBu from GST-tagged mouse PKC-delta C1B domain P11R mutant expressed in Escherichia coli after 2 to 30 mins by polyethylene glycol precipitation assay in presence of phosphatidylserine
Molecule `CC(C)C(CC(=O)OCC1(CO)C/C(=C/c2ccc(C(=O)O)cc2)C(=O)O1)C(C)C` (stereo not drawn) has a Ki of 940 nM.
`CC(C)CC(C/C=C1\CC(CO)(COC(=O)C(C)(CO)CO)OC1=O)CC(C)C` (stereo not drawn) gave a Ki of 2030 nM.
